Results: US20190328721A1, “METHOD OF ACTIVATING DENDRITIC CELLS” (KOREA INSTITUTE OF SCIENCE AND TECHNOLOGY, priority 2018, published 2019)

Experiments:
[1] = system: bone marrow-derived dendritic cells (BMDCs); assay: Phagocytosis of cancer cells by bone marrow-derived dendritic cells in vitro; format: cell-based, mice
Experimental: Specifically, the present inventors prepared bone marrow-derived macrophages (BMDMs) differentiated from excised bone marrow of mice using M-CSF and bone marrow-derived dendritic cells (BMDCs) differentiated from excised bone marrow using Flt3L. The degree of differentiation was confirmed by flow cytometry analysis using antibodies specifically binding to F4/80 (BMDM marker) and CD11c (BMDC marker), respectively (FIGS. 2A and 2B).
The prepared BMDMs and BMDCs were stained with 1 μM CellTracker Deep Red (Thermo Fisher Scientific, USA). 30 μM of Y27632 (Abcam, USA) or 30 μM of fasudil (Selleck Chemicals, USA) was added to each of 15×10^4 cells/ml of the stained macrophages and dendritic cells and incubated at 37° C. for 1 hour. As a negative control, macrophages or dendritic cells that were not incubated with Y27632 and fasudil were used.
Bone marrow-derived macrophages or dendritic cells prepared in RPMI medium and cancer cell lines stained with 1 μM CellTracker CMFDA (Thermo Fisher Scientific, USA) were co-cultured at about 37° C. for about 2 hours. CT26.CL25, a colon cancer cell line, and B16F10-OVA, a melanoma cell line, were used as the cancer cells.
Thereafter, the percentage of cancer cells was measured by flow cytometry, and the phagocytosis ratio of macrophages and dendritic cells against cancer cells was calculated. The results are shown in FIGS. 2C to 2F (left: cancer cell line CT26.CL25, right: cancer cell line B16F10-OVA).
In order to more accurately analyze the phagocytosis of macrophages and dendritic cells against cancer cells according to the treatment of the ROCK inhibitor, the present inventors analyzed phagocytosis of the BMDMs and BMDCs against CT26.CL25 colon cancer cells using the pHrodo-SE dye, which changes in fluorescence depending on pH. When […], the pH of the cancer cells decreased and became red. When treated with Y27632 as described above for the above-mentioned phagocytosis response, the phagocytic activities of both the BMDMs and BMDCs against cancer cells were improved.
The present inventors performed an experiment to confirm how long the phagocytosis of BMDMs and BMDCs against cancer cells due to the ROCK inhibitor is maintained. Specifically, BMDMs and BMDCs were pretreated with Y27632 for 1 hour, then Y27632 was removed, and immediately after 30 minutes, 1 hour, 2 hours, or 4 hours, the phagocytosis against CT26.CL25 and B16F10-Ova was measured using a flow cytometer. The other experimental conditions were the same as in Example 1-1.
In order to confirm whether the ROCK inhibitor increases phagocytosis against cancer cells by acting on phagocytic cells (BMDMs or BMDCs) themselves, Y27632 was used to pretreat the phagocytic cells or cancer cells for 1 hour, and the phagocytic activity was analyzed using the same procedure described in Example 1-1. […]
Phagocytic activity of bone marrow-derived dendritic cells (BMDCs) differentiated from bone marrow cells against cancer cells was analyzed by treating the BMDCs with ROCK inhibitor Y27632 (30 μM) for 1 hour and then co-cultivating with CT26.CL25 colon cancer cells pretreated with 25 μM of doxorubicin for 24 hours or B16F10-Ova malignant melanoma cells treated with 30 μM of Y27632 for 1 hour and then treated with 2.5 μM doxorubicin (Sigma-Aldrich, USA) for 24 hours by pHrodo SE (Thermo Fisher Scientific, USA) staining (BMDC:Dox-treated B16F10-Ova=1:1). As shown in FIGS. 16A to 16D, it was confirmed that the phagocytic activity of BMDCs induced by doxorubicin were increased in the Y27632-treated group compared to the control group (FIGS. 16A to 16D). […]

[2] = system: CT26.CL25 cancer cells; assay: CT26.CL25 tumor model; format: in vivo, Balb/c wild type mice; conditions: 10 mg/kg intravenous
Experimental: CT26.CL25 cancer cells (1×10^6) expressing β-galactosidase were subcutaneously injected into the left back of a Balb/c wild type mice to generate a tumor model Similarly, an […] tumor model was prepared by subcutaneously injecting melanoma cell line B16F10-Ova cells (5×10^5) into the left back of C57L/B6 wild-type mice to induce cancer.
In the case of the CT26.CL25 cancer cell line, 6 days after the injection of the cancer cells, and in the case of B 16F10-Ova, 9 days after the injection of the cancer cells, Y27632 was administered by intravenous injection at a dose of 10 mg/kg as indicated in FIG. 8a. In the case of the CT26.CL25 model, the mice were sacrificed on the 22nd day after the injection of the cancer cells and in the case of the B16F10-Ova cancer model, the mice were sacrificed on the 20th day after the injection of the cancer cells (FIG. 8A). As a negative control, phosphate-buffered saline was administered instead of Y27632.
The tumor tissues of the mice were excised, an ex vivo image was taken and the tumor tissue were weighed (FIG. 8B). In addition, before the mice were sacrificed, changes in body weights were measured at intervals of 3 days from the 6th day of the cancer cell injection in the CT26.CL25 cancer model and at intervals of 3 days from the 9th day in the B16F10-Ova cancer model (FIG. 8c). Length (L) and width (W) of the tumor tissues were measured, and the volume of the tumor tissues over time was calculated using the following formula (FIGS. 8D and 8E):
The volume of tumor tissue (V[mm^3])=(L[mm])[…] (W[mm])^2×0.5.

[3] = system: bone marrow-derived dendritic cells (BMDCs); assay: Phagocytosis of cancer cells by bone marrow-derived dendritic cells in vitro; format: cell-based, mice; conditions: 30 μM, 1 hour
[4] = system: CT26.CL25 cell line; assay: CT26.CL25 tumor model in immunodeficient nude mice; format: in vivo; conditions: 10 mg/kg intravenous
Experimental: Specifically, immunodeficient nude mice were subcutaneously injected with 1×10^6 cells of CT26.CL25 cell line in order to induce cancer. After the 11 days from the injection of the cancer cells, tumor size was 50-100 mm^3, and Y27632 was administered at a dose of 10 mg/kg continuously for two consecutive days by intravenous injection, followed by a day of rest as a cycle, followed by 3 cycles of 3-day intervals (FIG. 9A). As a negative control group, only phosphate buffered saline (PBS) was administered. The tumor tissues were excised and an ex vivo image was taken. In addition, before the mice were sacrificed, the change in body weight was measured at intervals of 3 days from the 11th day of cancer cell injection in the case of CT26.CL25 cancer model, and the length (L) and width (W) were measured, and the volume of the tumor tissues was measured using the equation described in Example 2-1 (FIG. 9B).

## C[C@@H](N)[C@H]1CC[C@H](C(=O)Nc2ccncc2)CC1 [Y27632]
[1]; 30 μM, 1 hour, CT26.CL25 (25 μM doxorubicin) or B16F10-Ova (2.5 μM doxorubicin), 24 hours
  phagocytic activity of BMDCs against doxorubicin-treated cancer cells: increased
[1]; 30 μM, 1 hour, co-culture with CT26.CL25 or B16F10-OVA about 2 hours
  phagocytic ability of dendritic cells against cancer cells: significantly increased
[1]; CT26.CL25 colon cancer cells
  phagocytic activity of BMDCs against cancer cells (pHrodo-SE dye): improved
[1]; cancer cells pretreated for 1 hour
  phagocytosis by BMDCs against cancer cells, cancer cells pre-treated: not increased
[1]; phagocytic cells pretreated for 1 hour
  phagocytosis against cancer cells, BMDCs pretreated: increased
[1]; pretreated 1 hour, then removed, CT26.CL25 and B16F10-Ova
  time for which BMDCs maintain phagocytosis after the pretreatment: ≤ 1 h
[2]
  body weight of the mice: no significant change
  volume of the tumors: significantly decreased
[2]; day 22
  weight of the tumors: significantly decreased
[3]; CT26.CL25 or B16F10-Ova
  phagocytosis of BMDCs against non-immunogenic apoptosis-induced cancer cells by cisplatin: increased similarly to that by doxorubicin treatment
[3]; necrosis at 55° C. for 30 minutes
  phagocytosis of BMDCs against necrosis-induced cancer cells: increased similarly to that by doxorubicin treatment
[4]
  anti-cancer effect (tumor volume) in nude mice lacking immune function: only a limited anti-cancer effect
